Measurements published in PMC10619691, “Effect of cyclic substituents on the anti-cancer activity and DNA interaction of ruthenium(II) bis-phenanthroline dipyridoquinoline” (Frontiers in Molecular Biosciences, 2023).

Key:
[1] = partition coefficient (log P), shake-flask method; format: physicochemical; settings: phosphate buffered saline (pH 7.4) / 1-octanol
Text: The role of lipophilicity in the activity of ruthenium (II) polypyridyl complexes is one that has been extensively reported ([Notaro and Gasser, 2017]). […] Based on this, we carried out a partition coefficient (log P) test using a shake-flask method to determine whether the marginal structural differences between VNK-754, VNK-572, and POW-12A affect their lipophilicity and to examine whether such a difference in lipophilicity confers any advantage to their anti-cancer activity. The log P results, as presented in Table 2, clearly show VNK-572 (0.014) and POW-12A (0.077) to be more lipophilic than VNK-754 (−0.874). […] Thus, along with varied DNA intercalating properties, this explains, in part, why there are appreciable differences in the cytotoxic effects of VNK572 and POW12A compared to VNK-754, even though they are generally similar in structure. For example, VNK-572 with an additional benzene ring can penetrate the bi-lipid-layered cell membrane better and achieve higher cellular and nuclear concentrations than VNK-754, producing a greater anti-tumor effect.
To study the lipophilicity of our complexes, we used the shake-flask method at 25.0 °C ± 0.1°C in line with the previously reported protocol ([Dubey et al., 2017]). Equal volumes of the aqueous phase (phosphate buffered saline, pH 7.4) and the 1-octanol phase were pre-saturated with each other overnight. A known amount of the complexes (respectively) was added to the aqueous phase, ensuring our final concentration was within the range of UV spectroscopic analysis; then, an equal volume of the pre-saturated […] phase was added. Both phases were then mixed in a conical flask and left shaking on a thermostatic shaker at a speed of 100 rpm overnight at room temperature. […] Considering that lipophilic compounds will partition into the octanol phase, the concentration of the complexes left in the aqueous phase was analyzed, respectively, by UV spectroscopy; then, the Log P value was calculated: Logp = Log10 ([solute] un-ionized octanol/[solute] un-ionized water).

HS DNA = experiment: DNA binding by fluorescence (emission) titration; set-up: species or system herring; settings: for binding constant / binding site size: emission titrations; for n′ (binding site size): titrating concentrated HS DNA into 5 μM solutions of ruthenium complex, direct fitting
Text: VNK-754 is a structural analog of [Ru(phen)2dpq]^2+, a complex that intercalates the dpq (dpq = dipyrido[3,2-f:2′,3′-h]quinoxaline) ligand from the minor groove ([Greguric et al., 1997]). The dpq ligand presents a sufficiently large planar surface to allow classical intercalation, and it might be expected that extending the surface with substituents would enhance such binding. However, while this is observed with the addition of aromatic rings, as in the case of [Ru(phen)2dppz]^2+, this may not be true for the addition of a saturated ring that distorts the planarity of the extended ring system (Figure 6). Studies were thus undertaken to establish the binding modes of POW-12A and VNK-572. All complexes bound strongly to DNA, and binding constants and binding site sizes were determined from emission titrations to be 1.91 × 10^6 M^–1 and 0.38 Ru/base for POW-12A, and 1.46 × 10^6 M^–1 and 0.24 Ru/base for VNK-572 (Table 3). […] The smallest binding site size a pure intercalator can have is four bases. The binding site size of POW-12A is smaller than four bases; this is not consistent with binding via pure intercalation.
PBS buffer was prepared with NaCl (137 mM), KCl (2.70 mM), Na2HPO4 (10.1 mM), and KH2PO4 (1.77 mM) in nanopure water. Using HCl, the pH was adjusted to 7.40. PBS buffer was used for all photophysical experiments. For linear dichroism experiments, a PBS buffer without potassium was used. Solutions of open-circle and supercoiled φX174 DNA were obtained from New England Biolabs. Sodium salts of high-molecular-weight herring sperm (HS-DNA) and calf thymus (CT-DNA) from Sigma were dissolved in PBS buffer, and concentrations were determined spectrophotometrically using the extinction coefficient ε260 nm = 6600 M^−1 cm^−1 for nucleobase concentration. The alternating polynucleotide polydeoxyadenylic-thymidylic acid ([poly(dA-dT)]2) and polydeoxyguanylic-cytidylic acid ([poly(dG-dC)]2) from NUNABIO ([Whitfield et al., 2015]) were dissolved in PBS buffer, and their concentrations were determined using the extinction coefficients ε262 nm = 6700 M^−1 cm^−1 and ε254 nm = 8400 M^−1 cm^−1, respectively. Direct fitting to raw data from fluorescence titration experiments (titrating concentrated HS DNA into 5 μM solutions of ruthenium complex) was used to give the binding constant (KB) and binding site size (n′). The following equation is derived from the Scatchard equation: ∝^2∙KB/PD−KB/PD+1/PDDt+KB∙n^′+KB∙n^′ = 0, where Db/Dt=I−I0/I∞−I0 , PD is the phosphate: dye ratio, KB is the binding constant (M^−1), and n′ is the binding site size (bases per compound). The equation is in the form of a quadratic equation, where a = KB[Dt]/PD, b = −(KB/PD+1/PD[Dt ] +KB∙n′), and c = KBn′. The positive solution to this quadratic equation gives values for α, from which theoretical intensities at each PD are calculated. The least squares regression method was used, minimizing the squared residuals of the theoretical and experimental intensities and floating the values of KB, I0, I∞, and n′.

SMILES | LogP [1] | binding constant (HS DNA) | binding site size (HS DNA) [Ru/base] | n′ (binding site size) (HS DNA) [bases per compound]
F[P-](F)(F)(F)(F)F.F[P-](F)(F)(F)(F)F.[Ru+2].c1cnc2c(c1)c1ncc3c(c1c1cccnc12)CCC3.c1cnc2c(c1)ccc1cccnc12.c1cnc2c(c1)ccc1cccnc12 [POW-12A] | 0.077 | 1.91 × 10^6 M^–1 | 0.38 | 2.63
F[P-](F)(F)(F)(F)F.F[P-](F)(F)(F)(F)F.[Ru+2].c1cnc2c(c1)c1ncc3c(c1c1cccnc12)CCCC3.c1cnc2c(c1)ccc1cccnc12.c1cnc2c(c1)ccc1cccnc12 [VNK-572] | 0.014 | 1.46 × 10^6 M^–1 | 0.24 | 4.16
